In PMC5379102, “Sequence-selective encapsulation and protection of long peptides by a self-assembled Fe^II8L6 cubic cage” (Nature Communications, 2017):
“Also recorded” adds a separate entry of the source. Read-outs that look alike come from different tables or passages of the source. Non-standard residues stand in square brackets, D forms with d. Residues, ends and D or L forms follow the SMILES beside them. No end group written: not given here. *: point of attachment. Dnp = O=[N+]([O-])c1ccc(*)c([N+](=O)[O-])c1; 2Abz = Nc1ccccc1C(=O)O

Experiments:
[1] = tested on: cage 1 (Fe^II8L6 cubic cage with zinc porphyrin faces); assay: Ultraviolet-visible titration of cage 1 with guest (host-guest binding)
Protocol: Ultraviolet–visible absorption spectroscopy measurements were performed using a Perkin Elmer Lambda 750 UV-Vis-NIR spectrophotometer fitted with a PTP-1 Peltier temperature controller accessory. Spectra were obtained in double beam mode using only the (front) analyte beam to record spectra, with air in the (rear) reference path. Samples were analysed using quartz cuvettes with optical path lengths of 1 mm. Unless otherwise specified, 417 nm was the wavelength selected to follow the binding of the guest.
A solution of 1 in CH3CN:H2O (1:1) (250 μl, 1.5 μM) or pure acetonitrile was transferred to a cuvette. Small aliquots of the guest's solution were titrated into the cuvette. The experiment was performed at room temperature. Each experiment was repeated three times (Supplementary Figs 31–46 and Supplementary Methods). Data obtained from the ultraviolet–visible titration were then fitted using nonlinear analysis with DynaFit programme (Biokin Software)[30] to the binding equation derived for either 1:1 model (porphyrin:guest with one imidazole group) or 2:1 model (porphyrin:guest with two imidazole groups), except in the case of G7. G7 contains two histidine amino acids in consecutive positions, therefore the distance between the imidazole rings of these two amino acids is too short to allow the interaction with two porphyrins at the same time. In this case, the binding model was 2:1 peptide:cage.
The dilution effect was corrected by multiplying the observe intensity for the dilution factor before the fitting. The error reported for each affinity value is the formal standard error calculated by DynaFit[30] as the square root of the diagonal elements of the variance–covariance matrix. This s.e. gives an idea of the precision of the fitted value.
The experimental data obtained using UV-Vis spectroscopy for each guest was fitted using
nonlinear analysis with DynaFit program (Biokin Software)2 to the binding equation derived
for 1:1 model porphyrin:imidazole group (non-cooperative model). […]

[2] = Solubility observations; type: physicochemical
Protocol: In a J-Young NMR tube porphyrin A (4 mg, 3.3 μmol, 6 equiv.; Supplementary Figs 1–4 and Supplementary Methods), iron(II) triflate (1.5 mg, 4.4 μmol, 8 equiv.) and 5,6,7,8-tetrahydronaphthalen-2-amine B (1.9 mg, 13 μmol, 24 equiv.) were suspended in [D7]DMF (400 μl) and [D3]MeCN (100 μl). The solution was deoxygenated by three freeze-pump-thaw cycles, the tube was sealed, and heated in the oil bath for 8 h at 70 °C. After this time, the solution was opened to air and cooled to room temperature. […] The suspension was centrifuged and the solvent above the solid was removed. The purple solid was washed twice with chloroform (3 ml) and partially dried under nitrogen. The solid was dissolved in acetonitrile (0.5 ml) after drying with nitrogen. 1 (Supplementary Figs 5–12) was not soluble in pure water, but it is soluble in a 1:1 acetonitrile:water mixture (1 mg ml^−1).

[3] = Trypsinization experiments (peptide hydrolysis by trypsin, with or without 1); type: in vitro ADME; conditions: isolated enzyme trypsin; peptide 20 μM, trypsin 6 μM (0.3 equiv.), 40% CH3CN / 50% phosphate buffer (0.1 M, pH 7.5, 0.2 M NaCl) / 10% H2O, room temperature, 30 min, RP-HPLC UV; read-out: cleavage by trypsin, single peptide, no 1
Protocol: (§1) Finally, we envisaged that the closed cubic architecture of 1 could protect its histidine-containing peptide guests from enzymatic degradation. For these experiments we used the protease trypsin, which cleaves exclusively on the C-terminal side of lysine and arginine residues. We initially examined G7 as a substrate. […] The incubation of a 20 μM solution of G8 with 0.3 equiv. of trypsin in a mixture of acetonitrile and phosphate buffer (pH=7.5) for 30 min led to the cleavage of G8 in 76% yield (Supplementary Fig. 49). When the same reaction was run in the presence of 0.6 equiv. of 1 (2:1 binding stoichiometry), the extent of cleavage was only 9% (Supplementary Fig. 50). The low degree of enzymatic degradation observed is consistent with the 9 μM dissociation constant of the adduct between 1 and G8, which implies the presence of a small amount of free peptide under the reaction conditions. Importantly, when the same experiment was carried out with a non-binding G9 in place of G8, with or without 1, quantitative G9 cleavage was observed (Supplementary Figs 52 and 53). In a further test, we treated a mixture of both peptides and 1 with trypsin, and incubated the mixture under identical conditions. In this case almost complete selectivity was observed.
(§2) Trypsinization reactions were followed by analytical RP-HPLC with an Agilent 1,100 series LC using an Eclipse XDB-C18 analytical column (3 × 150 mm, 3.5 μm). Standard conditions for analytical RP-HPLC consisted on a linear gradient from 0 to 10% of solvent B in 5 min, it then increased from 10 to 70% in 30 min at a flow rate of 1.0 ml min^−1 (A: water with 0.1% trifluoroacetic acid (TFA), B: acetonitrile with 0.1% TFA); 55 μl of solution was injected to the column each time. Compounds were detected by ultraviolet absorption and subsequently characterized by electrospray ionization (ESI) (Supplementary Figs 48–56).
(§3) The samples were prepared in 200 μl solution (40% CH3CN, 50% phosphate buffer and 10% H2O; phosphate buffer: 0.1 M, pH 7.5, 0.2 M NaCl). The concentration of the solution components were: peptides (G8 and G9) 20 μM, trypsin 6 μM and 1 12 μM. However, not all components were present in each sample, as noted in the main text. The reaction mixtures were stirred at room temperature for 30 min. It was observed that longer reaction times cause degradation of 1 due to the high concentration of NaCl in the phosphate buffer. After this time, H2O (200 μl) and acetic acid (8 μl) were added to quench the reaction. In the case of the control experiments with free Zn porphyrins, the concentration of the porphyrin was 72 μM.

[4] = tested on: trypsin; assay: as above; type: in vitro ADME
Protocol: as §1, §2, §3

[5] = tested on: cage 1 (Fe^II8L6 cubic cage with zinc porphyrin faces); assay: Host-guest chemistry studied by 1H NMR titration; type: binding; conditions: shifts of β-pyrrolic protons of 1
Source text: We used 1-methylimidazole (G1) as an initial probe, following its binding by ^1H NMR spectroscopy. Due to the large cavity, only slight upfield shifts of the signals of the β-pyrrolic protons of 1 were observed following the addition of G1. […] However, when a 1:1 mixture of water:acetonitrile was used, it was necessary to add 70 equivalents to achieve saturation (Supplementary Fig. 27). We infer the weaker interaction in the presence of water to be due to competing hydrogen bonding between water and imidazole.
A solution of 1 (0.5 ml) was prepared in a mixture of CD3CN:D2O (1:1) or in pure CD3CN and was transferred to a J-Young NMR tube. Aliquots of the guest were added in the same mixture of solvents. The NMR spectrum was recorded after each addition and the sample was mixed thoroughly before each measurement (Supplementary Figs 26–30).

[6] = 1:1 acetonitrile:water, 20 °C, 1 at 1.5 μM, UV-Vis at 417 nm, non-cooperative 1:1 imidazole (or thiazole):porphyrin model, except G7 (2:1 peptide:1), DynaFit fit, ± formal standard error, repeated three times, read-out: Kd (μM) in CD3CN:H2O (1:1)
[7] = peptide 20 μM, trypsin 6 μM, 1 12 μM, 40% CH3CN / 50% phosphate buffer (0.1 M, pH 7.5, 0.2 M NaCl) / 10% H2O, room temperature, 30 min, RP-HPLC UV
[8] = 1:1 acetonitrile:water, 20 °C, 1 at 1.5 μM, UV-Vis at 417 nm, non-cooperative 1:1 imidazole (or thiazole):porphyrin model, except G7 (2:1 peptide:1), DynaFit fit, ± formal standard error, repeated three times

Question: With “VFQFLGKIIHHVGNFVHGFSHVF [Guest G7, Clavanin A]” as the molecule, how does the “equivalents of guest that saturate the cage (UV-Vis)” value ([1]; 1:1 CH3CN:H2O, 20 °C, 1 at 1.5 µM (G7 3 µM)) read?
Answer: two

Question: What about the Kd ([1]; 1:1 CH3CN:H2O, 20 °C, 1 at 1.5 µM (Supplementary Figure 43), 2:1 peptide:1 model, read-out: Kd, titration at 1.5 µM cage) of the same molecule?
Answer: 0.06 ± 0.05 µM

Question: What about the Kd [1, 6] of the same molecule?
Answer: 0.08 ± 0.02 µM

Question: And the “solubility at neutral pH” value ([2]; trypsinization conditions)?
Answer: low solubility

Question: For tetrakis(formylpyridine)porphyrin A, which “solubility in water or acetonitrile” value ([2]; in either water or acetonitrile) is on record?
Answer: not observed to dissolve

Question: For `c1cscn1` [thiazole], which Kd [1, 6] is on record?
Answer: 1000 ± 200 µM

Question: Which results are given for H-SSWGHVGKYVHGWSHVS-OH [Guest G8]?
Answer: Kd [1, 6]: 9 ± 2 µM; times lower affinity than G7 ([1]; in 1:1 acetonitrile:water): 100; metabolised at 0.5 h [3]: 76%; yield of cleavage by trypsin, mixture of G8 and G9, 0.6 equiv of 1 ([4]; both peptides 20 μM, trypsin 6 μM, 1 12 μM, 40% CH3CN / phosphate buffer pH 7.5, room temperature, 30 min, RP-HPLC UV): 11%; cleavage by trypsin, single peptide, in the presence of 0.6 equiv. of 1 [4, 7]: 9%

Question: With `CC[C@H](C)[C@H](NC(=O)[C@@H](N)CCC(=O)O)C(=O)N[C@@H](CC(C)C)C(=O)N[C@@H](CC(=O)O)C(=O)N[C@H](C(=O)N1CCC[C@H]1C(=O)N[C@@H](CO)C(=O)N[C@H](C(=O)O)[C@@H](C)O)C(C)C` [Guest G10, H2N-E-I-L-D-V-P-S-T-OH] as the molecule, how does the “Kd (μM) in CD3CN:H2O (1:1)” value [1, 8] read?
Answer: no binding interaction; also recorded: not observed to interact

Question: Which results are given for `CC[C@H](C)[C@H](NC(=O)CNC(=O)c1ccccc1N)C(=O)N[C@H](C(=O)N[C@@H](CCCNC(=N)N)C(=O)N[C@@H](C)C(=O)N[C@@H](CCCCNc1ccc([N+](=O)[O-])cc1[N+](=O)[O-])C(=O)O)C(C)C` [Guest G9, Abz-NH-G-I-V-R-A-K(Dnp)-OH] (H-[2Abz]GIVRAK(Dnp)-OH)?
Answer: Kd (μM) in CD3CN:H2O (1:1) [1, 8]: no binding interaction; also recorded: not observed to interact; hydrolysis by trypsin in the presence of free Zn porphyrin ([4]; free A or water-soluble Zn-tetrakis(4-sulfonatophenyl)porphyrin 72 μM, peptide 20 μM, trypsin 6 μM, pH 7.5, 30 min): unaffected; cleavage by trypsin, single peptide, no 1 ([4]; peptide 20 μM, trypsin 6 μM (0.3 equiv.), 40% CH3CN / 50% phosphate buffer (0.1 M, pH 7.5, 0.2 M NaCl) / 10% H2O, room temperature, 30 min, RP-HPLC UV): quantitative; cleavage by trypsin, single peptide, in the presence of 0.6 equiv. of 1 [4, 7]: quantitative

Question: Which Kd [1, 6] does the source give for `Cn1ccnc1` [Guest G1, 1-methylimidazole] here?
Answer: 900 ± 70 µM

Question: What about the Kd ([1]; pure acetonitrile, 20 °C, 1 at 1.5 μM, UV-Vis at 417 nm, non-cooperative 1:1 imidazole:porphyrin model, DynaFit fit, ± formal standard error, repeated three times, read-out: Kd (μM) in CD3CN) of the same molecule?
Answer: 30 ± 1 µM

Question: What about the “equivalents of guest at saturation (1H NMR)” value ([5]; in 1:1 water:acetonitrile) of the same molecule?
Answer: 70 equivalents

Question: What about the “equivalents of guest at saturation (1H NMR)” value ([5]; in acetonitrile) of the same molecule?
Answer: seven
